Source: ChEMBL document CHEMBL3217649, “Synthesis of new N-substituted aminoquercitols from naturally available (+)-proto-quercitol and their -glucosidase inhibitory activity” (Medchemcomm, 2012)
The source made the active and inactive calls. The rule behind the calls is not given here.

Assays:
[1] = Inhibition of type 2 alpha-glucosidase in rat small intestine using maltose as substrate after 10 mins by microplate reader analysis
[2] = target: Sucrase-isomaltase, intestinal (Rattus norvegicus) (UniProt P23739); assay: Inhibition of sucrase in rat small intestine using sucrose as substrate at 1 mg/ml after 40 mins by microplate reader analysis
Chain of Sucrase-isomaltase, intestinal (Rattus norvegicus) (P23739 1-1013 limits assumed): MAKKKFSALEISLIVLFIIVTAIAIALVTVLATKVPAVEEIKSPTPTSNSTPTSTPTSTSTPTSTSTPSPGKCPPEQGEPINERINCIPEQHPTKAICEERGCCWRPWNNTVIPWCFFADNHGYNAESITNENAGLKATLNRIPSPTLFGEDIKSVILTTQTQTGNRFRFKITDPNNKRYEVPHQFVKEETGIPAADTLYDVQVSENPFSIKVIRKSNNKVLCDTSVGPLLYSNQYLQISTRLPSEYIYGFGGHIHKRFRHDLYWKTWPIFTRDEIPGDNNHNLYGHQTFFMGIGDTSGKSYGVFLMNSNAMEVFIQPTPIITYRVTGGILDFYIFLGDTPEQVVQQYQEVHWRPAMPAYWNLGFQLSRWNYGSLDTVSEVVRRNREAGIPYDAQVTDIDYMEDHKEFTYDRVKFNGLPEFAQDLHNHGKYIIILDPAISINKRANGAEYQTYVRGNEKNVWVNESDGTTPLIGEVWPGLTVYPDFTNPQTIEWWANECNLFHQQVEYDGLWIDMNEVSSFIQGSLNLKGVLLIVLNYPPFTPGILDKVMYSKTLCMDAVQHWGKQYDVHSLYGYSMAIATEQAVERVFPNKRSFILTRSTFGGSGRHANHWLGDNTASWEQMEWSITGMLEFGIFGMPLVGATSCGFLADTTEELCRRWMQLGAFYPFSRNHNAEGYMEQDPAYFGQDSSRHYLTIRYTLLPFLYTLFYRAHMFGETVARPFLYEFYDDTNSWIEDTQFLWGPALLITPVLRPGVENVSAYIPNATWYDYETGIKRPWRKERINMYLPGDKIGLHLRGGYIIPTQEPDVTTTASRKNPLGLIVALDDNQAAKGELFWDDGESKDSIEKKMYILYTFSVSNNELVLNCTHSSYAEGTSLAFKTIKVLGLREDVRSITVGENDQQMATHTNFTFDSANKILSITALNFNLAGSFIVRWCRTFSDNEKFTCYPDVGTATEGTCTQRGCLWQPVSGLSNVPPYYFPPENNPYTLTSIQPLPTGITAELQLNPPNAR
Chain of Sucrase-isomaltase, intestinal (Rattus norvegicus) (P23739 1014-1841 limits assumed): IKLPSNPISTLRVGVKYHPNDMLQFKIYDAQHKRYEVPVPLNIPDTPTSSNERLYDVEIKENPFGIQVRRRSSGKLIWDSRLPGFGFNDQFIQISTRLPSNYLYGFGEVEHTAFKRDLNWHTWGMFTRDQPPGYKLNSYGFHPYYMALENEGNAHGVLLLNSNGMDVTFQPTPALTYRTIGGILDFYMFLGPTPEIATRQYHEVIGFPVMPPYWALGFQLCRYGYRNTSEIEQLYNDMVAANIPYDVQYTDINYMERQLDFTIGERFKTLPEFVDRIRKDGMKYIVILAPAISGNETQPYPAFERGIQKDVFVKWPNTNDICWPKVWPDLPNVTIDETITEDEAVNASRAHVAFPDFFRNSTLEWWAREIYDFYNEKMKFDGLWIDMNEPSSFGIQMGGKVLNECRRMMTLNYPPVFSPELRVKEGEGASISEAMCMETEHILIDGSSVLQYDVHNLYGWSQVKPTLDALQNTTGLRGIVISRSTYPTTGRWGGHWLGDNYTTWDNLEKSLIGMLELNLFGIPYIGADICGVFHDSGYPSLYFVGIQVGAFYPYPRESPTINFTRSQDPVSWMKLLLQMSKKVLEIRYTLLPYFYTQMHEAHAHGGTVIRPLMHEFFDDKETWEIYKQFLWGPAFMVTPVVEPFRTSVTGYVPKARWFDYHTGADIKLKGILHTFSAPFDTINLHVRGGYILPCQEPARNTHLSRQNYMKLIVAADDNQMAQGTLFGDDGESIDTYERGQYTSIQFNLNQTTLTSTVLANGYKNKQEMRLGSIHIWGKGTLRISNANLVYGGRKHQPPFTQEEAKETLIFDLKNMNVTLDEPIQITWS

Saccharomyces cerevisiae [3] = assay: Inhibition of baker's yeast type 1 alpha-glucosidase using p-nitrophenyl-alpha-D-glucopyranoside as substrate at 10 mg/ml incubated for 10 mins prior to substrate challenge for 20 mins by microplate reader analysis
[4] = Inhibition of baker's yeast type 1 alpha-glucosidase using p-nitrophenyl-alpha-D-glucopyranoside as substrate incubated for 10 mins prior to substrate challenge for 20 mins by microplate reader analysis; design: species or system Saccharomyces cerevisiae
[5] = target: Sucrase-isomaltase, intestinal (Rattus norvegicus, UniProt P23739); assay: Inhibition of sucrase in rat small intestine using sucrose as substrate after 40 mins by microplate reader analysis
Chain of Sucrase-isomaltase, intestinal (P23739 1-1013 limits assumed): as the sequence (P23739 1-1013 limits assumed) above
Chain of Sucrase-isomaltase, intestinal (P23739 1014-1841 limits assumed): as the sequence (P23739 1014-1841 limits assumed) above

Saccharomyces cerevisiae [6] = assay: Ratio of acarbose IC50 to compound IC50 for baker's yeast type 1 alpha-glucosidase
Rattus norvegicus [7] = species: Rattus norvegicus; assay: Inhibition of type 2 alpha-glucosidase in rat small intestine using maltose as substrate at 1 mg/ml after 10 mins by microplate reader analysis
Rattus norvegicus [8] = species: Rattus norvegicus; assay: Ratio of acarbose IC50 to compound IC50 for type 2 alpha-glucosidase in rat small intestine
Rattus norvegicus [9] = species: Rattus norvegicus; assay: Competitive inhibition of maltase in rat small intestine using maltose as substrate by Lineweaver-Burk plot analysis
[10] = Inhibition of maltase in rat small intestine using maltose as substrate by Lineweaver-Burk plot based secondary replot analysis; assay type: tissue-based

Structure (SMILES) | IC50 [1] | inhibition [2] | inhibition (Saccharomyces cerevisiae [3]) | IC50 [4] | also measured
CCCCCCN(CCCCCC)[C@@H]1C[C@@H](O)[C@H](O)[C@@H](O)[C@H]1O | 48 µM | < 30% | < 30% |  | 
CCN[C@H]1C[C@@H](O)[C@H](O)[C@@H](O)[C@H]1O |  | < 30% | < 30% |  | inhibition (Rattus norvegicus [7]): 30%
CCCCCCCCCCN[C@H]1C[C@@H](O)[C@H](O)[C@@H](O)[C@H]1O | 2 µM |  | < 30% |  | IC50 [5]: 410 µM
CCCCN[C@@H]1C[C@@H](O)[C@H](O)[C@@H](O)[C@H]1O | 57 µM | < 30% |  | 1200 µM | 
CCCCN(CCCC)[C@@H]1C[C@@H](O)[C@H](O)[C@@H](O)[C@H]1O | 7.6 µM | < 30% |  | 1800 µM | 
CCCCCCN[C@H]1C[C@@H](O)[C@H](O)[C@@H](O)[C@H]1O | 2.5 µM | < 30% | < 30% |  | 
CCCCCCCCCCN[C@@H]1C[C@@H](O)[C@H](O)[C@@H](O)[C@H]1O | 0.41 µM | < 30% | < 30% |  | Ratio IC50 (Rattus norvegicus [8]): 3
CCN(CC)[C@H]1C[C@@H](O)[C@H](O)[C@@H](O)[C@H]1O | 21 µM |  |  | 1600 µM | IC50 [5]: 360 µM
CCCCCCN[C@@H]1C[C@@H](O)[C@H](O)[C@@H](O)[C@H]1O | 0.24 µM | < 30% |  | 400 µM | competitive inhibition (Lineweaver-Burk) (Rattus norvegicus [9]): Active; Ratio IC50 (Rattus norvegicus [8]): 3; Ki [10]: 0.73 µM
CCCCN[C@H]1C[C@@H](O)[C@H](O)[C@@H](O)[C@H]1O | 290 µM | < 30% | < 30% |  | 
CCN(CC)[C@@H]1C[C@@H](O)[C@H](O)[C@@H](O)[C@H]1O | 5 µM | < 30% |  | 1600 µM | competitive inhibition (Lineweaver-Burk) (Rattus norvegicus [9]): Active; Ki [10]: 3.5 µM
C[C@H]1O[C@H](O[C@H]2[C@H](O)[C@@H](O)[C@@H](O[C@H]3[C@H](O)[C@@H](O)C(O)O[C@@H]3CO)O[C@@H]2CO)[C@H](O)[C@@H](O)[C@@H]1N[C@H]1C=C(CO)[C@@H](O)[C@H](O)[C@H]1O (stereo partly drawn) [ACARBOSE] | 1.5 µM |  |  | 480 µM | competitive inhibition (Lineweaver-Burk) (Rattus norvegicus [9]): Active; Ki [10]: 0.99 µM
CCCCN(CCCC)[C@H]1C[C@@H](O)[C@H](O)[C@@H](O)[C@H]1O | 24 µM |  |  | 2300 µM | IC50 [5]: 36 µM

Now from value to compound, other results behind:

IC50 [1] | inhibition [2] | inhibition (Saccharomyces cerevisiae [3]) | Structure (SMILES) | IC50 [4] | also measured
3.5 µM | < 30% | < 30% | CCCCCCCCCC(=O)N[C@@H]1C[C@@H](O)[C@H](O)[C@@H](O)[C@H]1O |  | 
180 µM | < 30% |  | CC(=O)N[C@H]1C[C@@H](O)[C@H](O)[C@@H](O)[C@H]1O | 270 µM | 
5.3 µM |  |  | CC(=O)N[C@@H]1C[C@@H](O)[C@H](O)[C@@H](O)[C@H]1O | 150 µM | IC50 [5]: 5.3 µM; Ratio IC50 (Saccharomyces cerevisiae [6]): 3
7.4 µM | < 30% | < 30% | CCCCCCCCCCCC(=O)N[C@@H]1C[C@@H](O)[C@H](O)[C@@H](O)[C@H]1O |  | 
1.9 µM | < 30% | < 30% | CCCCCCCCCCCCN[C@H]1C[C@@H](O)[C@H](O)[C@@H](O)[C@H]1O |  | 
38 µM | < 30% | < 30% | CCCC(=O)N[C@H]1C[C@@H](O)[C@H](O)[C@@H](O)[C@H]1O |  | 
19 µM |  |  | CCCC(=O)N[C@@H]1C[C@@H](O)[C@H](O)[C@@H](O)[C@H]1O | 1200 µM | IC50 [5]: 4.7 µM
10 µM | < 30% | < 30% | CCCCCCCCCCCC(=O)N[C@H]1C[C@@H](O)[C@H](O)[C@@H](O)[C@H]1O |  | 
1.5 µM | < 30% | < 30% | CCCCCCCCCCCCN[C@@H]1C[C@@H](O)[C@H](O)[C@@H](O)[C@H]1O |  | 
2 µM | < 30% | < 30% | CCCCCCCCCC(=O)N[C@H]1C[C@@H](O)[C@H](O)[C@@H](O)[C@H]1O |  | competitive inhibition (Lineweaver-Burk) (Rattus norvegicus [9]): Active; Ki [10]: 1.5 µM
32 µM |  | < 30% | CCCCCCN(CCCCCC)[C@H]1C[C@@H](O)[C@H](O)[C@@H](O)[C@H]1O |  | IC50 [5]: 120 µM
4.2 µM | < 30% | < 30% | CCCCCC(=O)N[C@H]1C[C@@H](O)[C@H](O)[C@@H](O)[C@H]1O |  | 
3.8 µM |  |  | CCCCCC(=O)N[C@@H]1C[C@@H](O)[C@H](O)[C@@H](O)[C@H]1O | 1700 µM | IC50 [5]: 6.1 µM
